Measurements published in US9120804B2, “8-substituted 2-amino-[1,2,4] triazolo [1, 5-A] pyrazines as Syk tryrosine kinase inhibitors and GCN2 serin kinase inhibitors” (Merck Patent GmbH, priority 2012, dated 2015).

target: T1, SYK (Homo sapiens, UniProt P43405); experiment: SYK flash plate assay (enzyme assay); assay type: biochemical
T1 construct: 2.5 nM SYK, 400 nM Biotin-Aha-Aha-KEDPDYEWPSAKK
Description: The kinase assay is performed either as 384-well Flashplate assay (for e.g. Topcount measurement) or as 384-well Image-Flashplate assay (for LEADseeker measurement).
2.5 nM SYK, 400 nM Biotin-Aha-Aha-KEDPDYEWPSAKK
and 10 μM ATP (spiked with 0.3 μCi 33P-ATP/well) are incubated in a total volume of 50 μl (60 mM Hepes, 10 mM MgCl2, 1.2 mM Dithiothreitol, 0.02% Brij35, 0.1% BSA, pH 7.5) with or without test compound for 1 hours at 30° C. The reaction is stopped with 25 μl 200 mM EDTA. After 30 Min at 30° C. the liquid is removed and each well washed thrice with 100 μl 0.9% sodium chloride solution. Non-specific reaction is determined in presence of […] Staurosporine. Radioactivity is measured with Topcount (when using Flashplates) or with LEADseeker (when using Image-Flashplates) respectively. Results (e.g. IC50-values) are calculated with program tools provided by the IT-department (e.g. Symyx Assay Explorer, Genedata Screener). In Vivo Assays CIA

SMILES	IC50 [nM]
CC1(C)C(=O)Nc2cc(Nc3nc4c(N5C[C@@H](CO)C[C@H]5c5ccccc5)nccn4n3)ccc21 (single isomer, unassigned) [E95, 6-[8-((cis1)-4-hydroxymethyl-2-phenyl-pyrrolidin-1-yl)-[1,2,4]triazolo[1,5-a]pyrazin-2-ylamino]-3,3-dimethyl-1,3-dihydro-indol-2-one]	< 100
CC1(C)C(=O)Nc2cc(Nc3nc4c(N5C[C@@H](CO)C[C@@H]5c5ccccc5)nccn4n3)ccc21 (single isomer, unassigned) [E97, 6-[8-((trans1)-4-hydroxymethyl-2-phenyl-pyrrolidin-1-yl)-[1,2,4]triazolo[1,5-a]pyrazin-2-ylamino]-3,3-dimethyl-1,3-dihydro-indol-2-one]	300 to 3000
CC1(C)C(=O)Nc2cc(Nc3nc4c(N5C[C@H](CO)C[C@H]5c5ccccc5)nccn4n3)ccc21 (single isomer, unassigned) [E98, 6-[8-((trans2)-4-hydroxymethyl-2-phenyl-pyrrolidin-1-yl)-[1,2,4]triazolo[1,5-a]pyrazin-2-ylamino]-3,3-dimethyl-1,3-dihydro-indol-2-one]	100 to 300
COc1ccc(Nc2nc3c(-c4ccccc4-c4ccccc4)nccn3n2)cc1 [C1, (8-Biphenyl-2-yl-[1,2,4]triazolo[1,5-a]pyrazin-2-yl)-(4-methoxy-phenyl)-amine]	3000 to 50000
COc1ccc(OC)c(Nc2nc3c(-c4ccccc4-c4ccccc4)nccn3n2)c1 [C3, (8-Biphenyl-2-yl-[1,2,4]triazolo[1,5-a]pyrazin-2-yl)-(2,5-dimethoxy-phenyl)-amine]	300 to 3000
COc1ccc(Nc2nc3c(-c4ccccc4-c4ccccc4)nccn3n2)cc1OC [C5, (8-Biphenyl-2-yl-[1,2,4]triazolo[1,5-a]pyrazin-2-yl)-(3,4-dimethoxy-phenyl)-amine]	100 to 300
COc1cccc(Nc2nc3c(-c4ccccc4-c4ccccc4)nccn3n2)c1 [C7, (8-Biphenyl-2-yl-[1,2,4]triazolo[1,5-a]pyrazin-2-yl)-(3-methoxy-phenyl)-amine]	300 to 3000
c1ccc(-c2ccccc2-c2nccn3nc(Nc4ccc5cn[nH]c5c4)nc23)cc1 [C11, (8-Biphenyl-2-yl-[1,2,4]triazolo[1,5-a]pyrazin-2-yl)-(1H-indazol-6-yl)-amine]	300 to 3000
NS(=O)(=O)c1cccc(Nc2nc3c(-c4ccccc4-c4ccccc4)nccn3n2)c1 [C13, 3-(8-Biphenyl-2-yl-[1,2,4]triazolo[1,5-a]pyrazin-2-ylamino)-benzenesulfonamide]	3000 to 50000
NS(=O)(=O)c1ccc(Nc2nc3c(-c4ccccc4-c4ccccc4)nccn3n2)cc1 [C15, 4-(8-Biphenyl-2-yl-[1,2,4]triazolo[1,5-a]pyrazin-2-ylamino)-benzenesulfonamide]	3000 to 50000
c1ccc(-c2ccccc2-c2nccn3nc(Nc4cccc(N5CCOCC5)c4)nc23)cc1 [C17, (8-Biphenyl-2-yl-[1,2,4]triazolo[1,5-a]pyrazin-2-yl)-(3-morpholin-4-yl-phenyl)-amine]	300 to 3000
Cn1ncc2ccc(Nc3nc4c(-c5ccccc5-c5ccccc5)nccn4n3)cc21 [C20, (8-Biphenyl-2-yl-[1,2,4]triazolo[1,5-a]pyrazin-2-yl)-(1-methyl-1H-indazol-6-yl)-amine]	300 to 3000
COc1ccccc1Nc1nc2c(-c3ccccc3-c3ccccc3)nccn2n1 [C24, (8-Biphenyl-2-yl-[1,2,4]triazolo[1,5-a]pyrazin-2-yl)-(2-methoxy-phenyl)-amine]	3000 to 50000
C[S+]([O-])c1ccc(Nc2nc3c(-c4ccccc4-c4ccccc4)nccn3n2)cc1 (stereo not shown) [C31, (8-Biphenyl-2-yl-[1,2,4]triazolo[1,5-a]pyrazin-2-yl)-(4-methanesulfinyl-phenyl)-amine]	3000 to 50000
N#Cc1ccc(Nc2nc3c(-c4ccccc4-c4ccccc4)nccn3n2)cc1O [C35, 4-(8-Biphenyl-2-yl-[1,2,4]triazolo[1,5-a]pyrazin-2-ylamino)-2-hydroxybenzonitrile]	3000 to 50000
CS(=O)(=O)Nc1ccc(-c2nccn3nc(Nc4ccc(N5CCOCC5)cc4)nc23)cc1 [C42, N-{4-[2-(4-morpholin-4-yl-phenylamino)-[1,2,4]triazolo[1,5-a]pyrazin-8-yl]-phenyl}-methanesulfonamide]	300 to 3000
COc1cc(Nc2nc3c(N4CCN(C)CC4)nccn3n2)cc(OC)c1 [C46, (3,5-dimethoxy-phenyl)-[8-(4-methyl-piperazin-1-yl)-[1,2,4]triazolo[1,5-a]pyrazin-2-yl]-amine]	300 to 3000
COc1cc(Nc2nc3c(N4CCC(NS(C)(=O)=O)CC4)nccn3n2)cc(OC)c1 [C53, N-{1-[2-(3,5-dimethoxy-phenylamino)-[1,2,4]triazolo[1,5-a]pyrazin-8-yl]-piperidin-4-yl}-methanesulfonamide]	300 to 3000
COc1cc(Nc2nc3c(N4CCNC(c5ccccc5)C4)nccn3n2)cc(OC)c1 (stereo not shown) [C54, (3,5-dimethoxy-phenyl)-[8-(3-phenyl-piperazin-1-yl)-[1,2,4]triazolo[1,5-a]pyrazin-2-yl]-amine]	3000 to 50000
Cn1cc(-c2nccn3nc(Nc4ccc(C(C)(C)C)cc4)nc23)cn1 [C62, (4-tert-butyl-phenyl)-[8-(1-methyl-1H-pyrazol-4-yl)-[1,2,4]triazolo[1,5-a]pyrazin-2-yl]-amine]	100 to 300
Cc1nn(C)c(C)c1-c1nccn2nc(Nc3ccc4c(c3)NC(=O)C4(C)C)nc12 [C68, 3,3-dimethyl-6-[8-(1,3,5-trimethyl-1H-pyrazol-4-yl)-[1,2,4]triazolo[1,5-a]pyrazin-2-ylamino]-1,3-dihydro-indol-2-one]	300 to 3000
CC1(C)C(=O)Nc2cc(Nc3nc4c(-c5cccc6[nH]ncc56)nccn4n3)ccc21 [C90, 6-[8-(1H-indazol-4-yl)-[1,2,4]triazolo[1,5-a]pyrazin-2-ylamino]-3,3-dimethyl-1,3-dihydro-indol-2-one]	< 100
CC1(C)C(=O)Nc2cc(Nc3nc4c(N(CCO)C5CCNCC5)nccn4n3)ccc21 [C93, 6-{8-[(2-hydroxy-ethyl)-piperidin-4-yl-amino]-[1,2,4]triazolo[1,5-a]pyrazin-2-ylamino}-3,3-dimethyl-1,3-dihydro-indol-2-one]	300 to 3000

The next lines start with the values.

IC50 [nM]	SMILES
100 to 300	CC1(C)C(=O)Nc2cc(Nc3nc4c(N5C[C@H](O)C[C@@H]5c5ccccc5)nccn4n3)ccc21 (racemic) [C143, 6-[8-(4-hydroxy-2-phenyl-pyrrolidin-1-yl)-[1,2,4]triazolo[1,5-a]pyrazin-2-ylamino]-3,3-dimethyl-1,3-dihydro-indol-2-one]
< 100	CC1(C)C(=O)Nc2cc(Nc3nc4c(N[C@H]5CC[C@@H](O)CC5)nccn4n3)ccc21 [C75, cis-6-[8-(4-hydroxy-cyclohexylamino)-[1,2,4]triazolo[1,5-a]pyrazin-2-ylamino]-3,3-dimethyl-1,3-dihydro-indol-2-one]
300 to 3000	CC1(C)C(=O)Nc2cc(Nc3nc4c(N[C@H]5CC[C@H](O)CC5)nccn4n3)ccc21 [C76, trans-6-[8-(4-hydroxy-cyclohexylamino)-[1,2,4]triazolo[1,5-a]pyrazin-2-ylamino]-3,3-dimethyl-1,3-dihydro-indol-2-one]
< 100	CC1(C)C(=O)Nc2cc(Nc3nc4c(NC5CCCNC5)nccn4n3)ccc21 (stereo not shown) [C77, 3,3-dimethyl-6-[8-(piperidin-3-ylamino)-[1,2,4]triazolo[1,5-a]pyrazin-2-ylamino]-1,3-dihydro-indol-2-one]
300 to 3000	CC1(C)C(=O)Nc2cc(Nc3nc4c(N5CC(O)CC5c5ccccc5)nccn4n3)ccc21 (stereo not shown) [C79, 6-[8-(4-hydroxy-2-phenyl-pyrrolidin-1-yl)-[1,2,4]triazolo[1,5-a]pyrazin-2-ylamino]-3,3-dimethyl-1,3-dihydro-indol-2-one]
100 to 300	CC1(C)C(=O)Nc2cc(Nc3nc4c(N[C@@H]5CCCNC5)nccn4n3)ccc21 [C87, 3,3-dimethyl-6-[8-((R)-piperidin-3-ylamino)-[1,2,4]triazolo[1,5-a]pyrazin-2-ylamino]-1,3-dihydro-indol-2-one]
300 to 3000	CC1(C)C(=O)Nc2cc(Nc3nc4c(N5C[C@@H]6C[C@H]5CN6)nccn4n3)ccc21 [C89, 6-[(1S,4S)-8-(2,5-diaza-bicyclo[2.2.1]hept-2-yl)-[1,2,4]triazolo[1,5-a]pyrazin-2-ylamino]-3,3-dimethyl-1,3-dihydro-indol-2-one]
< 100	CC1(C)C(=O)Nc2cc(Nc3nc4c(N5CCCC6(COC6)C5)nccn4n3)ccc21 [C92, 3,3-dimethyl-6-[8-(2-oxa-6-aza-spiro[3.5]non-6-yl)-[1,2,4]triazolo[1,5-a]pyrazin-2-ylamino]-1,3-dihydro-indol-2-one]
100 to 300	CC1(C)C(=O)Nc2cc(Nc3nc4c(N5C6CCC5COC6)nccn4n3)ccc21 [C96, 3,3-dimethyl-6-[8-(3-oxa-8-aza-bicyclo[3.2.1 l]oct-8-yl)-[1,2,4]triazolo[1,5-a]pyrazin-2-ylamino]-1,3-dihydro-indol-2-one]
300 to 3000	CC1(C)C(=O)Nc2cc(Nc3nc4c(N[C@H]5C[C@H](N)C5)nccn4n3)ccc21 [C97, 6-[8-(trans-3-amino-cyclobutylamino)-[1,2,4]triazolo[1,5-a]pyrazin-2-ylamino]-3,3-dimethyl-1,3-dihydro-indol-2-one]
< 100	CC1(C)C(=O)Nc2cc(Nc3nc4c(N[C@H]5C[C@@H](N)C5)nccn4n3)ccc21 [C98, 6-[8-(cis-3-amino-cyclobutylamino)-[1,2,4]triazolo[1,5-a]pyrazin-2-ylamino]-3,3-dimethyl-1,3-dihydro-indol-2-one]
